Source: paper PMC10046946, “Novel Phthalic-Based Anticancer Tyrosine Kinase Inhibitors: Design, Synthesis and Biological Activity” (Current Issues in Molecular Biology, 2023)

Experiments:
[1] = system: K562 (chronic myelogenous leukemia); assay: MTT cell proliferation assay, K562; type: cell-based; conditions: Homo sapiens, K562, 72 h of exposition, read-out: Anti-proliferative activity IC50, K562
Method: (§1) Tests to determine the effects of the synthesized compounds on cell viability and the half-maximal inhibitory concentration (IC50) were performed using the MTT assay, as described in our prior work.
(§2) The target compounds 5, 6, 8–12, 14, 15, 17–22 and 24–26 were tested for antiproliferative activity against six cancer cell lines: K562 (chronic myelogenous leukemia), HL-60 (promyelocytic leukemia), MCF-7 (breast adenocarcinoma), HepG2 (human liver cancer), A549 (lung carcinoma) and OKP-GS (renal cell carcinoma). The RPMI 1788 cells (B lymphocyte, human) were used as a control to evaluate the system toxicity of the studied compounds to normal cells. Sorafenib, nilotinib and lapatinib were utilized as reference standards for comparison.

[2] = system: HL-60 (promyelocytic leukemia); assay: MTT cell proliferation assay, HL-60; type: cell-based; conditions: Homo sapiens, HL-60, 72 h of exposition, read-out: Anti-proliferative activity IC50, HL-60
Method: as §1, §2

[3] = system: MCF-7 (breast adenocarcinoma); assay: MTT cell proliferation assay, MCF-7; type: cell-based; conditions: Homo sapiens, MCF7, MCF-7, 72 h of exposition, read-out: Anti-proliferative activity IC50, MCF-7
Method: as §1, §2

[4] = system: HepG2 (human liver cancer); assay: MTT cell proliferation assay, HepG2; type: cell-based; conditions: Homo sapiens, HepG2, 72 h, HepG2, 72 h of exposition, read-out: Anti-proliferative activity IC50, HepG2
Method: as §1, §2

A549 (lung carcinoma) = assay: MTT cell proliferation assay, A549; type: cell-based; conditions: Homo sapiens, A549, 72 h of exposition, read-out: Anti-proliferative activity IC50, A549
Method: as §1, §2

[5] = system: OKP-GS (renal cell carcinoma); assay: MTT cell proliferation assay, OKP-GS; type: cell-based; conditions: 72 h of exposition, read-out: Anti-proliferative activity IC50, OKP-GS
Method: as §1, §2

[6] = system: RPMI 1788 cells (B lymphocyte, human); assay: MTT cell proliferation assay, normal RPMI 1788 cells; type: cell-based; conditions: normal human lymphoblastoid cells RPMI 1788, 72 h of exposition, read-out: Anti-proliferative activity IC50, RPMI 1788
Method: as §1, §2

[7] = system: cancer cell lines (K562, HL-60, MCF-7, HepG2, A549, OKP-GS); assay: MTT cell proliferation assay, statements over the whole cell line panel; type: cell-based; conditions: statement over the cell line panel, studied concentration range up to 50 µM
Method: as §1, §2

IC50 [1] [µM]	IC50 [2] [µM]	IC50 [3] [µM]	IC50 [4] [µM]	IC50 (A549 (lung carcinoma)) [µM]	IC50 [5] [µM]	melting point [°C]	IC50 ([7]; read-out: Antiproliferative activity (IC50) over the studied cell cultures) [µM]	Structure (SMILES)	IC50 [6] [µM]	Antiproliferative activity (IC50) over the studied cell cultures [7]
> 50	> 50	> 50	> 50	> 50	27.5 ± 2.58	290 to 292		Cc1cn(-c2cc(NC(=O)c3cccc(C(=O)Nc4cc([N+](=O)[O-])ccc4C)c3)cc(C(F)(F)F)c2)cn1 [Compound 12, N1-(3-(4-methyl-1H-imidazol-1-yl)-5-(trifluoromethyl)phenyl)-N3-(2-methyl-5-nitrophenyl)isophthalamide]	2.36 ± 1.13	lack of sensitivity of the cancer cells in the studied concentration range
> 50	> 50	41.1 ± 5.06	> 50	> 50	> 50	258 to 260		CNC(=O)c1cc(Oc2ccc(NC(=O)c3cccc(C(=O)Nc4cccc(C(F)(F)F)c4)c3)cc2)ccn1 [Compound 6, N1-(4-((2-(methylcarbamoyl)pyridin-4-yl)oxy)phenyl)-N3-(3-(trifluoromethyl)phenyl)isophthalamide]	13 ± 2.99	lack of sensitivity of the cancer cells in the studied concentration range
< 0.1	22.7 ± 4.76	4.2 ± 0.14	4.81 ± 0.21	> 50	2.76 ± 0.06		2 to 27	Cc1cn(-c2cc(NC(=O)c3ccc(C)c(Nc4nccc(-c5cccnc5)n4)c3)cc(C(F)(F)F)c2)cn1 [Nilotinib, reference compound]	19.32 ± 0.09	
